From ChEMBL document CHEMBL4732159, “Discovery of 6-Oxo-4-phenyl-hexanoic acid derivatives as RORγt inverse agonists showing favorable ADME profile” (Bioorg Med Chem Lett, 2021)

Assays:
[1] = Intrinsic clearance in human liver microsomes
[2] = Half life in mouse at 1 umol/kg, iv; settings: in vivo
in vivo [3] = settings: mouse, po, 2 umol/kg
[4] = Protein binding in human plasma
[5] = Protein binding in mouse plasma
in vivo [6] = settings: mouse, po, 2 umol/kg; remark: listed apart in the source
[7] = Clearance in mouse at 2 umol/kg, po or 1 umol/kg, iv; settings: in vivo
[8] = Apparent permeability across basal to apical membrane in human Caco-2 cells
[9] = Apparent permeability across apical to basal membrane in human Caco-2 cells
[10] = Half life in mouse at 2 umol/kg, po; settings: in vivo
[11] = Intrinsic clearance in mouse liver microsome; settings: microsomes

Structure (SMILES)	CLH [1] [µL/min/mg]	half-life [2] [h]	AUC (in vivo [3]) [µM·h]	fraction unbound [4]	fraction unbound [5]	bioavailability (in vivo [6]) [%]	clearance [7] [mL/min/kg]	Papp B→A [8] [×10⁻⁶ cm/s]	Papp A→B [9] [×10⁻⁶ cm/s]	half-life [10] [h]	CLH [11] [µL/min/mg]
Cc1c(CN2CCN(C(=O)C3CCCC3)[C@@H](C)C2)cc(F)cc1NC(=O)CCc1ccccc1	1900	–	–	–	–	–	–	–	–	–	–
Cc1c(CN2CCN(C(=O)C3CCCC3)[C@@H](C)C2)cc(F)cc1NC(=O)CC(CCC(=O)O)c1ccccc1 (stereo in doubt; 6a)	< 10	1.2	0.2	0.006	0.028	46	76.7	39	1.3	1.5	17
Cc1c(CN2CCN(C(=O)C3CCCC3)[C@@H](C)C2)cc(F)cc1NC(=O)CC(CCC(=O)O)c1ccccc1 (stereo in doubt; 6b)	21	–	–	–	–	–	–	–	–	–	–
C[C@H]1CN(Cc2cc(Cl)cc(NC(=O)CC(CCC(=O)O)c3ccccc3)c2Cl)CCN1C(=O)C1CCCC1 (stereo in doubt; 12a)	31	1.5	4	0.003	0.006	100	8.67	45	13	1.5	< 10
C[C@H]1CN(Cc2cc(Cl)cc(NC(=O)CC(CCC(=O)O)c3ccccc3)c2Cl)CCN1C(=O)C1CCCC1 (stereo in doubt; 12b)	< 10	–	–	–	–	–	–	–	–	–	–
